Experimental data from patent US20240197760A1, “ACTIVATORS OF INTEGRATED STRESS RESPONSE PATHWAY FOR PROTECTION AGAINST FERROPTOSIS” (Burke Neurological Institute, priority 2021, published 2024).

Assays:
[1] = test system: Creba, Crebb, Bdnf exon IV; experiment: Plasticity gene expression in human i.p.s. derived mature cortical neurons; assay type: cell-based; details: increasing concentrations, 6 h
Experimental: Human iPSC line (C1-1) was previously generated from skin biopsy samples of newborn and had been fully characterized and passaged on MEF feeder layers (Wen et al. 2014). All studies followed institutional IRB and ISCRO protocols approved by University of Pennsylvania Perelman School of Medicine. Human iPSCs were differentiated into cortical neurons following the previously established protocol (Wen et al. 2014). Briefly, hiPSCs colonies were detached from the feeder layer with 1 mg/ml collagenase (Thermo Fisher Scientific) treatment for 30 min and suspended in embryonic body (EB) medium, consisting of bFGF-free iPSC medium supplemented with 2 μM Dorsomorphin (Tocris) and 2 μM A-83 (Tocris), in non-treated polystyrene plates for 4 days with a daily medium change. […]
The gene expression of Bndf exon IV, Creba and Crebb in human i.p.s. derived neurons were also assessed using two step qPCR. […] Quantitative RT-PCR was then performed using SYBR green (Applied Biosystems) and the StepOnePlus™ Real-Time PCR System (Applied Biosystems). Quantitative levels for all genes were normalized to the housekeeping gene GAPDH and expressed relative to the relevant control samples. […]

[2] = test system: AMP/ATP ratio; experiment: AMP/ATP ratio from metabolic profiling of mouse primary neurons; assay type: cell-based; details: 10 mM, 8 h
Experimental: Targeted Metabolite profiling was performed according to a method described in a previous publication (Chen et al., 2016). Polar metabolites were extracted using cold 80% methanol. The extracts were dried completely with a Speedvac and redissolved in water before it was applied to the hydrophilic interaction chromatography LC-MS. The sample injection order was randomized. Metabolites were measured on a Q Exactive Orbitrap mass spectrometer (Thermo Scientific), which was coupled to a Vanquish UPLC system (Thermo Scientific) via an Ion Max ion source with a HESI II probe (Thermo Scientific). A Sequant ZIC-[…] column (2.1 mm i.d.×150 mm, particle size of 5 μm, Millipore Sigma) was used for separation of metabolites. A 2.1×20 mm guard column with the same packing material was used for protection of the analytical column. Flow rate was set at […]. […] The MS data was processed using XCalibur 4.1 (Thermo Scientific) to extract the metabolite signal intensity for relative quantitation. […] In pathway enrichment analysis, a single P value is calculated for each metabolic pathway. Pathway topology analysis measured the significance of a given experimentally identified metabolite in a pre-defined metabolic pathway.

[3] = test system: Trib3 promoter, Bdnf promoter; experiment: Promoter reporter luciferase assay in primary neurons; assay type: cell-based, mouse; details: 2-DG 9 h treatment, reporter in mouse primary neurons
Experimental: Primary neurons were co-transfected with various plasmids such as different Bdnf exon promoters each tagged with firefly luciferase or Trib3 promoter tagged with firefly luciferase and pTK-renilla luciferase plasmid at 1:10 ratio using Lipofectamine 2000 (Thermo Fisher Scientific, catalog number—11668019) according to the manufacturer's instructions to control for transfection efficiency. […] Thereafter, luciferase activity was measured using dual luciferase assay kit (Promega) and bioluminometer (MDS Analytical Technologies). Final luciferase activity was calculated by normalizing firefly luciferase activity with Renilla luciferase activity and then the valued were converted to fold change with respect to control.

[4] = test system: HEK293 cell line; details: cited from earlier work
[5] = test system: triple transgenic model of AD; details: cited from earlier work

SMILES: OC[C@H]1OC(O)C[C@@H](O)[C@@H]1O (stereo partly drawn) [2-DG, (4R,5S,6R)-6-(hydroxymethyl)oxane-2,4,5-triol]
- gene plasticity response (Creba, Crebb, Bdnf exon IV mRNA) [1]: gene plasticity response of neurons was still the same
- AMP-ATP ratio [2]: increase
- Trib3 promoter activity with or without mutation in ATF4 binding site [3]: ATF4 binding site mutation completely blocked the 2-DG led induction of Trib3 promoter activity
- Bdnf gene expression [4]: inhibit the Bdnf gene expression
- brain energy metabolism and amyloid pathology [5]: improve brain energy metabolism and amyloid pathology
